For orientation: IC50 means the concentration needed to halve the response being measured. A high value points to lower potency.

Sequence of MAPK14 (human) (Q16539 whole entry, looked up): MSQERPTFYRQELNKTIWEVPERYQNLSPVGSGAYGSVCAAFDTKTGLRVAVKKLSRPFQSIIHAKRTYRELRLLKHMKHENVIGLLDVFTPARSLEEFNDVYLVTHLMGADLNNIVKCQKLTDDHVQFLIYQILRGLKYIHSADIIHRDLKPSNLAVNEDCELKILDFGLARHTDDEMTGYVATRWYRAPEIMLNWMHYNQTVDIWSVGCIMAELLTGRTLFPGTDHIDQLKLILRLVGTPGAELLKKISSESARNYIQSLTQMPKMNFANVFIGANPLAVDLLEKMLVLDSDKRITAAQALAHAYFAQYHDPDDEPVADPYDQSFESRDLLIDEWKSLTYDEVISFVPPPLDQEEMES

The assay addresses MAPK14 (human) (UniProt Q16539). The assay can be described thus: Inhibition of MAPK14 Kinase Activity.
In turn, `Cc1c(NC(=O)Nc2nnc(N3CCOCC3)s2)sc(C(=O)N2CCOCC2)c1Cl` came in with an IC50 of less than 15 µM.

For `CCOC(=O)c1ccc(NC(=O)Nc2cc(C(C)(C)C)nn2-c2ccc(F)cc2)s1`, the IC50 was less than 15 µM.

Turning to `Cc1c(NC(=O)c2ccc(F)cc2)sc(C(=O)N2CCOCC2)c1Cl`, the IC50 was less than 15 µM.

Compound `Cc1c(NC(=O)c2cc(F)cc(N3CCOCC3)c2)sc(C(=O)N2CCOCC2)c1Cl` displayed an IC50 of less than 15 µM.

`Cc1c(NC(=O)c2cc(F)cc(N3CCOCC3)c2)sc(C(=O)Nc2ccc(F)cc2)c1Cl` displayed an IC50 of less than 15 µM.

In turn, `COC(=O)c1sc(NC(=O)c2ccc(F)cc2)c(C)c1C#N` returned an IC50 of less than 15 µM.

As for `COC(=O)c1sc(NC(=O)c2cc(F)cc(N3CCOCC3)c2)c(C)c1Cl`, the IC50 is less than 15 µM.

For `Cc1c(NC(=O)Nc2nnc(C3CCCCC3)s2)sc(C(=O)N2CCOCC2)c1Cl`, the IC50 is less than 15 µM.

With `COC(=O)c1sc(NC(=O)Nc2cc(C(C)(C)C)nn2-c2ccc(F)cc2)c(C)c1Cl`, the IC50 is less than 15 µM.

`Cc1c(NC(=O)Nc2cc(C(C)(C)C)nn2-c2ccc(F)cc2F)sc(C(=O)N2CCOCC2)c1Cl`: the IC50 was less than 15 µM.

`CC(C)(C)c1cc(NC(=O)Nc2ccc(C(=O)N3CCOCC3)s2)n(-c2ccc(F)cc2)n1` had an IC50 of less than 15 µM.

For `Cc1c(NC(=O)Nc2cc(C(C)(C)C)nn2-c2ccc(F)cc2)sc(C(=O)NCc2ccncc2)c1Cl`, the IC50 is less than 15 µM.

In turn, `Cc1c(NC(=O)c2ccc(F)cc2)sc(C(=O)Nc2ccc(F)cc2)c1Cl` returned a 50% inhibitory concentration (IC50) of less than 15 µM.

As for `Cc1cc(NC(=O)c2cc(F)cc(N3CCOCC3)c2)sc1C(=O)N1CCOCC1`, the IC50 was less than 15 µM.

`Cc1c(NC(=O)Nc2cc(C(C)(C)C)nn2-c2ccc(F)cc2)sc(C(=O)N2CCN(C)CC2)c1Cl`: the IC50 is less than 15 µM.

With `Cc1c(NC(=O)Nc2cc(C(C)(C)C)nn2-c2ccc(F)cc2)sc(C(=O)N2CCOCC2)c1Cl`, the IC50 is less than 15 µM.

As for `COC(=O)c1sc(NC(=O)Nc2cc(C(C)(C)C)nn2-c2ccc(F)cc2)c(C#N)c1C`, the IC50 was less than 15 µM.
